From patent US12115161B2, “Prophylactic and/or therapeutic agent for inflammatory diseases which contains pyrrolopyrimidine compound as active ingredient” (KEIO UNIVERSITY, priority 2018, dated 2024)

Columns and labels:
[1] = test system: peripheral blood mononuclear cells (PBMC); assay: IgG production by B cell-stimulation culture using peripheral blood mononuclear cells (Example 5); format: cell-based, human
Method: Peripheral blood mononuclear cells were isolated from normal healthy human peripheral blood by density gradient centrifugation using Ficoll. In the presence of 5 μg/mL anti-human IgM antibody, 1 μg/mL anti-human CD40 antibody, 30 ng/mL recombinant human IL-21, 30 ng/mL recombinant human BAFF, and Compound A (0.4 μM, 2 μM, and 10 μM), 2×10^5 peripheral blood mononuclear cells were cultured using a 10% FBS/RPMI 1640 culture medium in a 5% CO2 environment at 37° C. for seven days. The cells were cultured in 96-well round-bottom culture plates in a scale of 200 μL per well. Seven days later, the supernatant was removed and the culture supernatant was collected to determine the IgG content in the culture supernatant by ELISA. As controls, experiments in the case of not adding Compound A and the case of adding neither Compound A nor BAFF were also performed. Moreover, for comparison with the effects of Compound A, experiments using BIK-13 instead of Compound A were also performed.

[2] = test system: human monocytic cell line THP-1; assay: IL-6 production inhibitory effect of BAFF in IFNγ-precultured THP-1 cells (Example 2); format: cell-based
Method: In 24-well plates (manufactured by Corning Inc.) in a RPMI-1640 culture medium (produced by ATCC) containing 10% fetal bovine serum (produced by JRH Biosciences), 5×10^5 cells of human monocytic leukemia cell line THP-1 (obtained from a bioresource bank, Japanese Collection of Research Bioresource) were seeded per well. IFNγ (interferon γ, produced by BD Pharmingen) was added to a final concentration of 200 ng/mL and cultured in a 5% CO2 environment at 37° C. After four days of culture, the culture broth in each well was removed and the cells were washed twice with the culture medium, followed by addition of the culture medium containing a final concentration of 2 μg/mL of recombinant human soluble BAFF (produced by Chemicon), and respective test compounds were added to a final concentration of 20 μM or 2 μM to continue the culture in the same conditions. After three days of culture, the culture supernatant was collected to determine the IL-6 content in the supernatant by ELISA. For ELISA, mouse anti-human IL-6 antibody (produced by BD Pharmingen), biotin-labeled anti-human IL-6 antibody (produced by BD Pharmingen), and HRP-labeled streptavidin (produced by BD Pharmingen) were used. The test compound groups were used by purchasing from Asinex. In the test system, Compound 27 (BIK-13) in PTL 1 was used as a positive control (compound with inhibitory action on IL-6 production by monocytic cells). BIK-13 was the same as the compound of ADM 12880656 by Asinex Japan Inc.
In the presence of 200 ng/mL recombinant human IFNγ (same as Example 1) (entire culture scale of 24-well culture plates at 2 mL/well), 5×10^5 cells of human monocytic cell line THP-1 (same as Example 1) were cultured using a 10% FBS/RPMI 1640 culture medium in a 5% CO2 environment at 37° C. for four days (96 hours). Four days later, an operation of removing the supernatant, adding a new medium, leaving it still in an incubator, and removing the supernatant was repeated twice. After removing the supernatant, recombinant human BAFF (2 μg/mL) was dissolved together with Compound A (ADM 12880492, Asinex Japan Inc.) or Compound B (ADM 12880696, Asinex Japan Inc.) in a medium and added to the culture wells to be cultured for three days. Three days later, the culture supernatant was collected to determine the IL-6 content in the culture supernatant by IL-6 specific ELISA. As a control, instead of Compound A or Compound B, BIK-13 was used.

MRL/lpr mice = assay: Anti-dsDNA antibody titer in blood of MRL/lpr mice (Example 6); format: in vivo
Description: MRL/lpr mice (purchased from Charles River Laboratories Japan, Inc.) were used as disease model (may also be referred to as collagen disease model or systemic lupus erythematosus (SLE) model) mice developing inflammatory diseases at a high rate and developing multiple autoimmune phenomena. Approximately 80% or more of the MRL/lpr mice develop systemic vasculitis around four to five months old. In addition, it is also known that the same individual spontaneously develops, not only vasculitis, but also glomerulonephritis, arthritis, sialadenitis, and the like (J. Jpn. Coll. Angiol., 2009, 49 11-16.).
Experiments were performed as follows: • Group 1: administered a physiological saline solution only (saline); • Group 2: administered 0.04 mg/kg of Compound A; • Group 3: administered 0.2 mg/kg of Compound A; • Group 4: administered 1 mg/kg of Compound A. […]
The blood was collected over time (0 w, 4 w, 8 w, 12 w, and 16 w) measure the anti-dsDNA antibody titers in the blood. The anti-dsDNA antibody is a kind of antinuclear antibody and is known to be frequently and specifically detected in the serum of SLE patients.
The anti-dsDNA antibody titers in the blood were measured with “LBIS™ anti-dsDNA mice ELISA KIT” (AKRDO-061, produced by Fujifilm Corp.). […]

Cc1c(C)n(Cc2ccccc2)c2ncnc(OC3CCN(CC(=O)NCC4CC4)CC3)c12 [Compound A, 2-[4-{(7-benzyl-5,6-dimethyl-7H-pyrrolo[2,3-d]pyrimidin-4-yl)oxy}piperidin-1-yl]-N(cyclopropylmethyl)acetamide]
IgG antibody production inhibitory effect compared with the control ([1]; 0.4 μM, 2 μM and 10 μM, anti-IgM, anti-CD40, IL-21 and BAFF stimuli, 7 days): significant (respectively, p<0.05, p<0.01, and p<0.001) IgG antibody production inhibitory effects
cancellation of the IgG antibody production enhancement by BAFF ([1]; 10 μM, compared with adding none): almost completely cancelled
inhibitory effect on IgG antibody production, times stronger than BIK-13 ([1]; PBMC system of Example 5): approximately 25 times
IL-6 production inhibitory effect compared with the control ([2]; 0.04 μM, 0.2 μM and 1 μM together with 2 μg/mL human BAFF, 3 days, ELISA): significant (p<0.001) IL-6 production inhibitory effects
relative amount of IL-6 production ([2]; 0.04 μM, control (BAFF only) = 100%): 25±1.42%
IL-6 production inhibitory effect, times stronger than BIK-13 ([2]; THP-1 system of Example 2): at least 750 times
anti-dsDNA antibody titer inhibitory effect compared with saline (MRL/lpr mice; 0.2 mg/kg and 1 mg/kg, 16th week): significant (respectively, p<0.05) anti-dsDNA antibody titer inhibitory effects
anti-dsDNA antibody titers in the blood compared with saline (MRL/lpr mice; 0.04, 0.2 and 1 mg/kg, intravenous injection five times a week, 8 w or later): tendency of decrease
